Experimental data from US20040197346A1, “Materials and methods for intracellular transport and their uses” (Marie Curie Cancer Care, priority 1997, published 2004).

Legend:
[1] = system: Cos-1 cells; assay: Delivery by intercellular trafficking, immunofluorescence of transfected Cos-1 cell monolayers; format: cell-based; details: transfected Cos-1 cells, 48 h, methanol-fixed, anti-VP22/-p53/-epitope immunofluorescence
Method: Cos-1 cells were grown in Dulbecco's modified MEM supplemented with 10% new born calf serum at 37° C. with 5% CO2.
Transfections were performed using the BES/CaCl2 method (Elliott and O'Hare, 1997) with 200 ng test plasmid with 1800 ng pUB19. Transfections were allowed to proceed for 48 h at which point the monolayers were harvested for immunofluorescence or western blot analysis.
Cell monolayers on coverslips were fixed with 100% methanol for 15 mins at room temperature and labelled as described in Elliott and O'Hare (1997). All antibodies were diluted in PBS+10% serum. VP22 was detected using a rabbit polyclonal antibody AGV30 (1:500), p53 was detected using a mouse monoclonal antibody DO-1 (Santa-Cruz Ltd), the CMV epitope was detected using a mouse monoclonal antibody CMV. LNA (Capricorn Ltd). Images were obtained using a Bio-Rad MRC600 confocal microscope.
The VP22-p53 fusion protein construct was generated by cloning a full length p53 PCR fragment C-terminal to VP22 into a unique Bam site, keeping both VP22 and the CMV epitope in frame.
We constructed an epitope-tagged full length in-frame VP22-p53 fusion protein construct (FIG. 2). This vector generates a fusion protein of approx 90 kDa when expressed in Cos-1 cells, with very little protein degradation as judged by western blot analysis (FIG. 3). […]

[2] = Transport activity of VP22 sub-sequences; format: cell-based; details: sub-sequences of full HSV1 VP22 sequence (1-301)

Substance	delivery by intercellular trafficking (spread into nuclei of neighbouring non-expressing cells) [1]	transport activity [2]
VP22: HSV-1 virion protein VP22, 38 kDa, with intercellular trafficking mechanism	clear spread to the nuclei of adjacent cells	–
aa 60-301: polypeptide corresponding to aminoacids 60-301 of the full HSV1 VP22 sequence (1-301)	–	transport activity is present
aa 159-301: polypeptide corresponding to aminoacids 159-301 of the full HSV1 VP22 sequence (1-301)	–	transport activity is present
aa 175-301: polypeptide consisting of aa 175-301 of the VP22 sequence	–	markedly less transport activity
deletion of the 34-aminoacid C-terminal sequence from VP22 of HSV1: VP22 of HSV1 lacking its 34-aminoacid C-terminal sequence	–	abolishes transport-activity
